Counter-ions that a name gives are not always drawn. Where a SMILES comes first, the peptide text is derived from it.
Experiments:
IGF-II mRNA = experiment: IGF-II expression assay, qPCR detection, in primary spinal cord cultures; format: cell-based, mice; details: for induction of IGF-II expression (in words): antihypertensive agents, FIGS. 5 and 6
Description: Quantitative PCR utilizing SYBR green I (Molecular Probes, Eugene, Oreg.) or specific Taqman probes was used to confirm differential gene expression. RNA extracted from 100-200 LCMed motor neurons were reverse transcribed using Superscript III (Invitrogen). 2 μl of diluted cDNA was amplified (DNA Engine Opticon real-time PCR machine, Bio-Rad), in […] reactions containing 900 nM primer and 250 nM probe in Taqman Universal Master Mix (Applied Biosystems). Reactions were run in duplicate and each gene analyzed in at least three different animals. Reaction parameters were as follows: 50° C. for 2 min, 95° C. for 10 min, and 40 cycles of 95° C. for 15 s and 60° C. for 1 min. Controls lacking template and/or Superscript were included. The absolute copy number for each gene was quantified using a standard curve from human GAPDH plasmid and amplified products were normalized against rat GAPDH expression. Primers and probes (Integrated DNA technologies) were as follows: rat GAPDH: Forward primer: […]
Two libraries of FDA-approved drugs (NINDS and Harvard LDDN) were screened for their ability to up-regulate IGF-II expression. Candidate compounds were screened in an IGF-II expression assay using a qPCR detection methodology in primary spinal cord cultures or using a luciferase reporter assay. In the initial screening, therapeutic candidates were identified as those that increased IGF-II expression by at least 2-fold. […]

IGF-II protein = IGF-II protein expression in primary spinal cord cultures, quantitated by ELISA; format: cell-based, mice
Source text: Further results of the library screening identified the following therapeutic agents as having a significant inducing effect on IGF-II expression in primary spinal cord cultures and are useful for treating motor neuron disease. Protein expression was quantitated by ELISA.

CCOC(=O)[C@@](C)(N)Cc1ccc(O)c(O)c1 [Methyldopate HCl]
Fold Increase in IGF-II mRNA Expression (IGF-II mRNA): 4.3 fold
induction of IGF-II expression (in words) (IGF-II mRNA): most active

O=C(O)COCCN1CCN(C(c2ccccc2)c2ccc(Cl)cc2)CC1 (stereo not shown) [Cetirizine HCl]
Fold Increase in IGF-II mRNA Expression (IGF-II mRNA): 5.8 fold

COc1ccccc1OCC(O)CO (stereo not shown) [Guaifenesin]
Fold Increase in IGF-II mRNA Expression (IGF-II mRNA): 2.9 fold

NC(=O)c1cccnc1 [Niacinamide]
Fold Increase in IGF-II mRNA Expression (IGF-II mRNA): 5.0 ± 3.6 fold
Fold Increase in IGF-II Protein Expression (IGF-II protein): 1.1 fold
IGF-II Protein Expression (pg/ml in media) (IGF-II protein): (151 ± 45) pg/ml

COc1ccc2[nH]c([S+]([O-])Cc3ncc(C)c(OC)c3C)nc2c1 (stereo not shown) [Omeprazole]
Fold Increase in IGF-II mRNA Expression (IGF-II mRNA): 5.9 fold

CC(C)NCC(O)COc1ccc(CC(N)=O)cc1 (stereo not shown) [atenolol]
induction of IGF-II expression (in words) (IGF-II mRNA): most active

CC(=O)OCC(=O)[C@@]1(O)[C@H](C)C[C@H]2[C@@H]3CCC4=CC(=O)C=C[C@]4(C)[C@@]3(F)[C@@H](O)C[C@@]21C [Dexamethasone acetate]
Fold Increase in IGF-II mRNA Expression (IGF-II mRNA): 3.8 fold

CCC(=O)NCC[C@@H]1CCc2ccc3c(c21)CCO3 [Ramelteon]
Fold Increase in IGF-II mRNA Expression (IGF-II mRNA): 3.4 ± 1.3 fold
Fold Increase in IGF-II Protein Expression (IGF-II protein): 1.5 fold
IGF-II Protein Expression (pg/ml in media) (IGF-II protein): (201 ± 10) pg/ml

CC(C)[C@H](N)C(=O)OCCOCn1cnc2c(=O)[nH]c(N)nc21 [Valacyclovir HCl]
Fold Increase in IGF-II mRNA Expression (IGF-II mRNA): 4.2 ± 1.8 fold
Fold Increase in IGF-II Protein Expression (IGF-II protein): 1.5 fold
IGF-II Protein Expression (pg/ml in media) (IGF-II protein): (232 ± 4) pg/ml

CC(COc1ccccc1)N(CCCl)Cc1ccccc1 (stereo not shown) [phenoxybenzamine HCl]
induction of IGF-II expression (in words) (IGF-II mRNA): most active

CN1CCC[C@@H]1Cc1c[nH]c2ccc(CCS(=O)(=O)c3ccccc3)cc12 [Eletriptan HBr]
Fold Increase in IGF-II mRNA Expression (IGF-II mRNA): 4.3 fold

O=C(O)c1cc(-c2ccc(F)cc2F)ccc1O [diflunisal]
IGF-II inducing activity (in words) (IGF-II mRNA; NSAID series, FIGS. 3 and 4): strong IGF-II inducing activity

Cc1onc(-c2ccccc2)c1-c1ccc(S(N)(=O)=O)cc1 [valdecoxib]
IGF-II inducing activity (in words) (IGF-II mRNA; NSAID series, FIGS. 3 and 4): strong IGF-II inducing activity

Cc1cc2nc3c(=O)[nH]c(=O)nc-3n(C[C@H](O)[C@H](O)[C@H](O)CO)c2cc1C [Riboflavin]
Fold Increase in IGF-II mRNA Expression (IGF-II mRNA): 4.1 ± 1.9 fold
Fold Increase in IGF-II Protein Expression (IGF-II protein): 1.5 fold
IGF-II Protein Expression (pg/ml in media) (IGF-II protein): (205 ± 42) pg/ml

COc1ccc([C@@H]2Sc3ccccc3N(CCN(C)C)C(=O)[C@@H]2OC(C)=O)cc1 [Diltiazem HCl]
Fold Increase in IGF-II mRNA Expression (IGF-II mRNA): 4.3 fold
induction of IGF-II expression (in words) (IGF-II mRNA): most active

CN(C)CCCC1(c2ccc(F)cc2)OCc2cc(C#N)ccc21 (stereo not shown) [Citalopram]
Fold Increase in IGF-II mRNA Expression (IGF-II mRNA): 3.4 fold

O=C(O)Cc1ccccc1Nc1c(Cl)cccc1Cl [Diclofenac]
Fold Increase in IGF-II mRNA Expression (IGF-II mRNA): 4.0 ± 1.1 fold
induction of IGF-II expression (fold induction) (IGF-II mRNA; NSAID series, FIGS. 3 and 4): 3.4±1.3 fold
Fold Increase in IGF-II Protein Expression (IGF-II protein): 1.1 fold
IGF-II Protein Expression (pg/ml in media) (IGF-II protein): (112 ± 29) pg/ml

C[N+](C)(C)C[C@H](O)CC(=O)[O-] [Levocarnitine]
Fold Increase in IGF-II mRNA Expression (IGF-II mRNA): 5.7 ± 1.1 fold
Fold Increase in IGF-II Protein Expression (IGF-II protein): 1.7 fold
IGF-II Protein Expression (pg/ml in media) (IGF-II protein): (258 ± 7) pg/ml

CN(C)CCCN1c2ccccc2Sc2ccc(Cl)cc21 [Chlorpromazine]
Fold Increase in IGF-II mRNA Expression (IGF-II mRNA): 3.4 fold

Cc1ccc(-c2nc3ccc(C)cn3c2CC(=O)N(C)C)cc1 [Zolpidem]
Fold Increase in IGF-II mRNA Expression (IGF-II mRNA): 6.1 fold

N[C@@H](Cc1ccc(O)c(O)c1)C(=O)O [Levodopa]
Fold Increase in IGF-II mRNA Expression (IGF-II mRNA): 3.5 fold

CC(C(=O)O)c1ccc2c(c1)[nH]c1ccc(Cl)cc12 (stereo not shown) [Carboprofen]
Fold Increase in IGF-II mRNA Expression (IGF-II mRNA): 2.4 fold
IGF-II inducing activity (in words) (IGF-II mRNA; NSAID series, FIGS. 3 and 4): strong IGF-II inducing activity

COC(=O)[C@H](Cc1ccccc1)NC(=O)[C@@H](N)CC(=O)O [Aspartame] (H-Asp-Phe-OMe)
Fold Increase in IGF-II mRNA Expression (IGF-II mRNA): 5.5 ± 0.7 fold
Fold Increase in IGF-II Protein Expression (IGF-II protein): 1.2 fold
IGF-II Protein Expression (pg/ml in media) (IGF-II protein): (175 ± 1.7) pg/ml

CCCCNc1cc(C(=O)O)cc(S(N)(=O)=O)c1Oc1ccccc1 [bumetanide]
induction of IGF-II expression (in words) (IGF-II mRNA): most active

Cc1cc2c(s1)Nc1ccccc1N=C2N1CCN(C)CC1 [Olanzapine]
Fold Increase in IGF-II mRNA Expression (IGF-II mRNA): 4.0 fold

COCCCC/C(=N\OCCN)c1ccc(C(F)(F)F)cc1 [Fluvoxamine maleate]
Fold Increase in IGF-II mRNA Expression (IGF-II mRNA): 4.8 fold

CNCC[C@@H](Oc1ccccc1C)c1ccccc1 [Atomoxetine HCl]
Fold Increase in IGF-II mRNA Expression (IGF-II mRNA): 4.8 fold

CN1CCCC(n2nc(Cc3ccc(Cl)cc3)c3ccccc3c2=O)CC1 (stereo not shown) [Azelastine HCl]
Fold Increase in IGF-II mRNA Expression (IGF-II mRNA): 3.2 fold

COC(=O)C1=C(C)NC(C)=C(C(=O)OC)C1c1ccccc1[N+](=O)[O-] [Nifedipine]
Fold Increase in IGF-II mRNA Expression (IGF-II mRNA): 6.6 ± 6.2 fold

COc1cc2c(cc1OC)C(=O)C(CC1CCN(Cc3ccccc3)CC1)C2 (stereo not shown) [donepezil HCl]
induction of IGF-II expression (in words) (IGF-II mRNA): most active

Nc1nc(/C(=C/CC(=O)O)C(=O)N[C@@H]2C(=O)N3C(C(=O)O)=CCS[C@H]23)cs1 [Ceftibuten]
Fold Increase in IGF-II mRNA Expression (IGF-II mRNA): 3.9 ± 2.7 fold

Cc1onc(-c2c(Cl)cccc2Cl)c1C(=O)N[C@@H]1C(=O)N2[C@@H]1SC(C)(C)[C@@H]2C(=O)O [Dicloxacillin sodium]
Fold Increase in IGF-II mRNA Expression (IGF-II mRNA): 3.2 fold

CC(C)(C)NC[C@H](O)COc1nsnc1N1CCOCC1 [timolol maleate]
induction of IGF-II expression (in words) (IGF-II mRNA): most active

CCCN(CCC)CCc1cccc2c1CC(=O)N2 [Ropinirole]
Fold Increase in IGF-II mRNA Expression (IGF-II mRNA): 4.5 ± 3.0 fold

Clc1ccc2c(c1)C(N1CCNCC1)=Nc1ccccc1O2 [Amoxapine]
Fold Increase in IGF-II mRNA Expression (IGF-II mRNA): 4.1 ± 2.3 fold

Cc1ncc(C[n+]2csc(CCO[P@](=O)(O)OP(=O)(O)O)c2C)c(N)n1 [Thiamine pyrophosphate]
Fold Increase in IGF-II mRNA Expression (IGF-II mRNA): 4.1 ± 2.1 fold
Fold Increase in IGF-II Protein Expression (IGF-II protein): 0.9 fold
IGF-II Protein Expression (pg/ml in media) (IGF-II protein): (118 ± 42) pg/ml

CCCc1nc(C(C)(C)O)c(C(=O)OCc2oc(=O)oc2C)n1Cc1ccc(-c2ccccc2-c2nnn[nH]2)cc1 [Olmesartan medoxomil]
Fold Increase in IGF-II mRNA Expression (IGF-II mRNA): 5.2 fold
induction of IGF-II expression (in words) (IGF-II mRNA): most active

NC(=O)C[S+]([O-])C(c1ccccc1)c1ccccc1 (stereo not shown) [Modafinil]
Fold Increase in IGF-II mRNA Expression (IGF-II mRNA): 4.4 ± 4.0 fold
Fold Increase in IGF-II Protein Expression (IGF-II protein): 1.4 fold
IGF-II Protein Expression (pg/ml in media) (IGF-II protein): (213 ± 22) pg/ml

Nc1c2c(nc3ccccc13)CCCC2 [Tacrine HCl]
Fold Increase in IGF-II mRNA Expression (IGF-II mRNA): 3.7 fold

CS(=O)(=O)c1ccc([C@@H](O)[C@@H](CO)NC(=O)C(Cl)Cl)cc1 [Thiamphenicol]
Fold Increase in IGF-II mRNA Expression (IGF-II mRNA): 3.5 fold

Clc1cccc(Cl)c1N=C1NCCN1 [clonidine HCl]
induction of IGF-II expression (in words) (IGF-II mRNA): most active

terbutaline hemisulfate
induction of IGF-II expression (in words) (IGF-II mRNA): most active

COCCCOc1cc(C[C@@H](C[C@H](N)[C@@H](O)C[C@H](C(=O)NCC(C)(C)C(N)=O)C(C)C)C(C)C)ccc1OC [aliskiren hemifumarate]
induction of IGF-II expression (in words) (IGF-II mRNA): most active

COc1ccc(Cl)cc1C(=O)NCCc1ccc(S(=O)(=O)NC(=O)NC2CCCCC2)cc1 [Glyburide]
Fold Increase in IGF-II mRNA Expression (IGF-II mRNA): 4.9 fold

COc1ccccc1OCCNCC(O)COc1cccc2[nH]c3ccccc3c12 (stereo not shown) [carvedilol]
induction of IGF-II expression (in words) (IGF-II mRNA): most active

COc1ccc(-c2cc(C(F)F)nn2-c2ccc(S(N)(=O)=O)cc2)cc1F [deracoxib]
IGF-II inducing activity (in words) (IGF-II mRNA; NSAID series, FIGS. 3 and 4): strong IGF-II inducing activity

NNc1nncc2ccccc12 [Hydralazine HCl]
Fold Increase in IGF-II mRNA Expression (IGF-II mRNA): 6.3 fold
induction of IGF-II expression (in words) (IGF-II mRNA): most active

CN1CCCC1c1cccnc1.O=C(O)C(O)C(O)C(=O)O.O=C(O)C(O)C(O)C(=O)O (stereo not shown) [Nicotine ditartrate]
Fold Increase in IGF-II mRNA Expression (IGF-II mRNA): 4.8 ± 0.3 fold
Fold Increase in IGF-II Protein Expression (IGF-II protein): 1.5 fold
IGF-II Protein Expression (pg/ml in media) (IGF-II protein): (205 ± 26) pg/ml

Cc1cnc(NC(=O)C2=C(O)c3ccccc3S(=O)(=O)N2C)s1 [Meloxicam sodium]
Fold Increase in IGF-II mRNA Expression (IGF-II mRNA): 4.1 fold

CNCCC(Oc1ccc(C(F)(F)F)cc1)c1ccccc1 (stereo not shown) [Fluoxetine]
Fold Increase in IGF-II mRNA Expression (IGF-II mRNA): 4.3 ± 2.3 fold

Reference: patent US20130274235A1, “TREATMENT OF MOTOR NEURON DISEASE” (THE GENERAL HOSPITAL CORPORATION, priority 2010, published 2013)
